# Measured values taken from patent US9878054B2, “Polypeptide and lipophilic moiety conjugate compositions, formulations, and uses related thereto” (Tufts Medical Center, Inc., priority 2012, dated 2018).
# pIC50: −log10 of the molar value. Where a SMILES comes first, the peptide text is derived from it. The star is where a group is joined. Palmitoyl = CCCCCCCCCCCCCCCC(=O)*
# Legend:
# PAR1 [1] = target: T1, PAR1 (Homo sapiens, UniProt P25116); assay: Human platelet aggregation, PAR1 agonist SFLLRN; format: cell-based; conditions: gel filtered human platelets, SFLLRN 2.5 μM
# T1 construct: Platelets were isolated from platelet rich plasma (PRP) using Sepharose 2B columns; endogenous in cells; host or cells: human platelets from healthy donors, gel-filtered
# T1 sequence (P25116 22-425): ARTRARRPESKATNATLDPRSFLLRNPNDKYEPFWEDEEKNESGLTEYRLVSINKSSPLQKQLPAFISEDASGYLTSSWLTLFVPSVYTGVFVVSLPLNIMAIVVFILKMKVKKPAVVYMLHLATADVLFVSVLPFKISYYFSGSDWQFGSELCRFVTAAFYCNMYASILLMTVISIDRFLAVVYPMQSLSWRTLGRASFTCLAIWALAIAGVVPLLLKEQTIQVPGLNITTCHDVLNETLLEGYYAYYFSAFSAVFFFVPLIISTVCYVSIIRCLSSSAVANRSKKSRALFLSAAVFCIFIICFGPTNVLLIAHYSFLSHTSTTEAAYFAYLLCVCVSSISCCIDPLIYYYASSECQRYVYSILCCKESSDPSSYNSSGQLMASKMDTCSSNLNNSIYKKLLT
# Experimental: (§1) A, Depiction of the mechanism of action of the cell-penetrating PZ-128 pepducin compound targeting the third intracellular loop (red) of PAR1. B, The NMR structure of PZ-128 was determined by simulated annealing methods using 210 distance restraints and included restraints to the proximal 3 hydrocarbons of the lipid. […] D, PZ-128 inhibits PAR1-dependent platelet aggregation. Gel filtered human platelets were treated with various concentrations of PZ-128 and then challenged with the PAR1 agonist SFLLRN (2.5 μM), 20 μM ADP, 200 μM AYPGKF or 1 mg/ml Ristocetin. E, Human platelets were treated with 3 μM PZ-128, 3 μM RWJ-56110, or 5% dextrose vehicle before the addition of various concentrations of thrombin (n=3-5).
# (§2) PZ-128 also markedly right-shifted thrombin-induced aggregation by 5-fold. By comparison, the small molecule RWJ-56110 which antagonizes PAR1 at the extracellular ligand-binding site gave a 2-fold right shift in the thrombin activation curve of human platelets.
# (§3) Whole blood from healthy donors was collected into a 30 ml syringe containing sodium citrate (0.4% vol/vol final). Platelets were isolated from platelet rich plasma (PRP) using Sepharose 2B columns in modified PIPES buffer.
# [2] = Solubility of lyophilized PZ-128 after reconstitution (visual inspection); format: physicochemical
# Experimental: Column recovered fractions containing PZ-128 ammonium salts were lyophilized by using the following procedure: 5 mL of elute from reverse phase column cartridge was place into a 15-mL vial; the sample frozen in dry ice-isopropanol bath for 5 minutes with swirling until completely frozen, the temperature should be about −35 to −45° C. and the vacuum pressure should be about 60-100×10^−3 mBar; frozen samples/vials are places in a 0.5-1 L lyophilization glass container; open the chamber to the vacuum pump where the vacuum pressure should rise and then come back to 100-200×10^−3 M Bar until drying is complete; and the sample is stored at −20° C. The product of the first PZ-128 lyophilization was dissolved in pure water and lyophilized a second time.
# The different excipients listed in Table 1 were added to 10×500 μL aliquots of the fully soluble 1 mg/mL PZ-128 solution (product of the first lyophilization), mixed, froze, and lyophilization overnight. After lyophilization, the appearance of the dried lyophilizate was examined and the solubility determined after reconstitution with 100 μL water to 5 mg/mL PZ-128 salt product.
# The appearances of each of the samples after a second lyophilization from water with the different excipients are listed in Table 1. […]
# [3] = tested on: human platelets (Ristocetin); assay: Human platelet aggregation, ristocetin; format: cell-based; conditions: 1 mg/ml Ristocetin
# Experimental: as §1, §2, §3
# [4] = tested on: human platelets (thrombin); assay: Thrombin-induced aggregation of human platelets; format: cell-based; conditions: 3 μM compound
# Experimental: as §1, §2, §3
# PAR1 [5] = assay: Baboon ex vivo platelet aggregation, SFLLRN (PAR1); format: in vivo
# Experimental: A-C, Male baboons (10-12 kg) were administered 1, 3 or 6 mg/kg PZ-128, or 5% dextrose USP vehicle by iv infusion and blood collected into 100 μg/ml PPACK anticoagulant at 0, 1, 2, 6, or 24 h time points. Light transmission platelet aggregometry was performed with platelet rich plasma with the indicated agonists (SFLLRN for PAR1, AYPGKF for PAR4 and ADP for P2Y12 and P2Y1). Data are reported as mean±SD (n=3-7) relative to time 0 controls (0%) and were analyzed by repeated measures one-way ANOVA with Bonferroni post-test correction; *P<0.05, **P<0.01 relative to time 0. Global P values were >0.05 for 1 mg/kg, 0.004 for 3 mg/kg, <0.0001 for 6 mg/kg. D, Pharmacokinetics of 3 and 6 mg/kg 45-min iv infusions of PZ-128 in male baboons. Plasma PZ-128 levels were measured by LC/MS/MS at 9 sequential time points: baseline, 15 min, 30 min, 1 h, 2 h, 4 h, 8 h, 24 h and 48 h after the start of infusion. Open symbols indicated plasma concentrations that were under the measurement threshold (5 ng/ml).
# The anti-platelet effects of PZ-128 micelles were next examined in baboons at various time points after receiving different doses of intravenous infusions. […] At the lowest dose tested, 1 mg/kg PZ-128 micelles ([…]), PAR1-dependent aggregation (5 μM SFLLRN) was inhibited by only 5-10% at the 1-2 h time points (FIG. 3A). […] As a further assessment of in vivo specificity, PZ-128 gave no inhibition at any dose of either the ADP or AYPGKF (PAR4) responses at any time point.
# Non-terminal thrombosis and platelet aggregation studies were performed on 12 healthy male baboons (Papio anubis) weighing 9-12 kg at the Oregon National Primate Research Center (ONPRC). […] Whole blood (10 ml) was collected into PPACK at a final concentration of 100 μg/ml just prior to infusion (baseline) and 15 min to 24 h after the PZ-128 micelle infusion was terminated. Platelet counts and hematocrit were measured immediately. PRP was prepared from whole blood and platelet aggregation performed as described above. Bleeding time (BT) measurements were performed on the shaved volar surface of the forearm using the standard template method.
smiles,measurement,setting,value
"CCCCCCCCCCCCCCCC(=O)N[C@@H](CCCCN)C(=O)N[C@@H](CCCCN)C(=O)N[C@@H](CO)C(=O)N[C@@H](CCCNC(=N)N)C(=O)N[C@@H](C)C(=O)N[C@@H](CC(C)C)C(=O)N[C@@H](Cc1ccccc1)C(N)=O [PZ-128, palmitate-KKSRALF-NH2] (Palmitoyl-KKSRALF-NH2)",Extent of inhibition of human platelet aggregation in response to SFLLRN,PAR1 [1],completely inhibited
same,pIC50,"PAR1 [1]; read-out: IC50, inhibition of human platelet aggregation in response to PAR1 agonist SFLLRN",6.30
same,Solubility of product of second lyophilization from pure water,"[2]; 5 mg/mL, tested formulations including 100% water",did not solubilize
same,Solubility of micelles after filtration and second lyophilization with ammonium acetate,[2]; 100% water and 5% dextrose/water at 5 mg/mL,readily soluble
same,Inhibitory activity against ristocetin aggregation,[3],no inhibitory activity
same,Right shift of thrombin-induced aggregation curve,[4],5 fold
same,Inhibition of PAR1-dependent ex vivo aggregation,"PAR1 [5]; 1 mg/kg, 30 min infusion, 5 μM SFLLRN, 1-2 h",5-10%
same,Reversibility: inhibition with higher concentration of SFLLRN agonist,"PAR1 [5]; 3 mg/kg and 6 mg/kg, 10 μM SFLLRN",loss of inhibition
same,Inhibition of PAR1-dependent ex vivo aggregation,"PAR1 [5]; 3 mg/kg, 30 min infusion, 1 h and 2 h",85%
same,Inhibition of PAR1-dependent ex vivo aggregation,"PAR1 [5]; 3 mg/kg, 24 h",not appreciably inhibited
same,Inhibition of PAR1-dependent ex vivo aggregation,"PAR1 [5]; 6 mg/kg, 45 min infusion, 1-2 h",100%
same,Inhibition of PAR1-dependent ex vivo aggregation,"PAR1 [5]; 6 mg/kg, 45 min infusion, 6 h",90%
same,"PAR1-dependent ex vivo aggregation, recovery","PAR1 [5]; 6 mg/kg, 24 h",completely recovered
